# In patent US20090068290A1, “BIFEPRUNOX DOSES FOR TREATING SCHIZOPHRENIA” (priority 2006, published 2009):
# Key:
# [1] = tested on: adult subjects with schizophrenia; test: PANSS positive subscale score, Clinical Study One; format: in vivo, human; details: ITT; for PANSS Positive Subscale Score, Trt Effect (bifeprunox—placebo): ANCOVA
# Description: (§1) There were five treatment groups in this study. […] Study medication was administered once daily. After Baseline measurements were performed, the titration phase was begun. Bifeprunox treated subjects were titrated up to 5 mg, 10 mg or 20 mg according to a standardized titration schedule (Day 1: 0.125 mg, Day 2: 0.25 mg, Day 3: 0.5 mg, Day 4: 1.0 mg, Day 5: 2.0 mg, Day 6: 5.0 mg, Day 7: 10.0 mg, Day 8: 20 mg). When the assigned dose was reached, subjects were maintained at that dose for the remainder of the six-week treatment period.
# (§2) The change in the Positive and Negative Symptom Scale (PANSS) total score, from baseline to endpoint, was the primary outcome measure. Secondary efficacy measures included: PANSS positive, PANSS negative, PANSS general psychopathology (GPP) score, PANSS-derived Brief Psychiatric Rating Scale (BPRS) score, Clinical Global Impressions-Severity of Illness (CGI-S), CGI-Improvement (CGI-I) scores, and responder rates. Safety and tolerability evaluations included extrapyramidal symptoms (EPS), weight gain, lipid profile, and serum prolactin.
# [2] = tested on: adult subjects with schizophrenia; test: CGI Improvement score, Clinical Study One; format: in vivo, human; design: Actual Value of CGI Improvement Score, Median / CGI Improvement Score, Trt Effect: scale not given here
# Description: as §1, §2
# [3] = Bifeprunox 10 mg, Endpoint LOCF
# [4] = Bifeprunox 20 mg, Endpoint LOCF
structure (smiles),measurement,setting,value
"O=c1[nH]c2cccc(N3CCN(Cc4cccc(-c5ccccc5)c4)CC3)c2o1 [Bifeprunox, 7-[4-([1,1′-biphenyl]-3-ylmethyl)-1-piperazinyl]-2(3H)-benzoxazolone]","Change from Baseline in PANSS Positive Subscale Score, Mean (S.D.)","[1]; Bifeprunox 5 mg, Endpoint LOCF",−3.2 (5.2)
same,"Change from Baseline in PANSS Positive Subscale Score, Median","[1]; Bifeprunox 5 mg, Endpoint LOCF",−3
same,"PANSS Positive Subscale Score, Trt Effect (bifeprunox—placebo)","[1]; Bifeprunox 5 mg, Endpoint LOCF",−1.1
same,"Change from Baseline in PANSS Positive Subscale Score, Mean (S.D.)","[1]; Bifeprunox 5 mg, Week 1, LOCF",−1.1 (3.4)
same,"Change from Baseline in PANSS Positive Subscale Score, Median","[1]; Bifeprunox 5 mg, Week 1, LOCF",−1
same,"Change from Baseline in PANSS Positive Subscale Score, Mean (S.D.)","[1]; Bifeprunox 5 mg, Week 2, LOCF",−2.1 (4.0)
same,"Change from Baseline in PANSS Positive Subscale Score, Median","[1]; Bifeprunox 5 mg, Week 2, LOCF",−2
same,"Change from Baseline in PANSS Positive Subscale Score, Mean (S.D.)","[1]; Bifeprunox 5 mg, Week 3, LOCF",−2.6 (4.7)
same,"Change from Baseline in PANSS Positive Subscale Score, Median","[1]; Bifeprunox 5 mg, Week 3, LOCF",−3
same,"Change from Baseline in PANSS Positive Subscale Score, Mean (S.D.)","[1]; Bifeprunox 5 mg, Week 4, LOCF",−3.0 (5.0)
same,"Change from Baseline in PANSS Positive Subscale Score, Median","[1]; Bifeprunox 5 mg, Week 4, LOCF",−4
same,"Change from Baseline in PANSS Positive Subscale Score, Mean (S.D.)",[1]; [3],−1.4 (6.1)
same,"Change from Baseline in PANSS Positive Subscale Score, Median",[1]; [3],−1
same,"PANSS Positive Subscale Score, Trt Effect (bifeprunox—placebo)",[1]; [3],0.7
same,"Change from Baseline in PANSS Positive Subscale Score, Mean (S.D.)","[1]; Bifeprunox 10 mg, Week 1, LOCF",−0.6 (3.9)
same,"Change from Baseline in PANSS Positive Subscale Score, Median","[1]; Bifeprunox 10 mg, Week 1, LOCF",−1
same,"Change from Baseline in PANSS Positive Subscale Score, Mean (S.D.)","[1]; Bifeprunox 10 mg, Week 2, LOCF",−1.2 (4.7)
same,"Change from Baseline in PANSS Positive Subscale Score, Median","[1]; Bifeprunox 10 mg, Week 2, LOCF",−1
same,"Change from Baseline in PANSS Positive Subscale Score, Mean (S.D.)","[1]; Bifeprunox 10 mg, Week 3, LOCF",−1.1 (5.5)
same,"Change from Baseline in PANSS Positive Subscale Score, Median","[1]; Bifeprunox 10 mg, Week 3, LOCF",−1
same,"Change from Baseline in PANSS Positive Subscale Score, Mean (S.D.)","[1]; Bifeprunox 10 mg, Week 4, LOCF",−1.1 (5.6)
same,"Change from Baseline in PANSS Positive Subscale Score, Median","[1]; Bifeprunox 10 mg, Week 4, LOCF",−1
same,"Change from Baseline in PANSS Positive Subscale Score, Mean (S.D.)",[1]; [4],−3.5 (5.1)
same,"Change from Baseline in PANSS Positive Subscale Score, Median",[1]; [4],−3
same,"PANSS Positive Subscale Score, Trt Effect (bifeprunox—placebo)",[1]; [4],−1.5
same,"Change from Baseline in PANSS Positive Subscale Score, Mean (S.D.)","[1]; Bifeprunox 20 mg, Week 1, LOCF",−1.7 (3.5)
same,"Change from Baseline in PANSS Positive Subscale Score, Median","[1]; Bifeprunox 20 mg, Week 1, LOCF",−1
same,"Change from Baseline in PANSS Positive Subscale Score, Mean (S.D.)","[1]; Bifeprunox 20 mg, Week 2, LOCF",−2.7 (4.3)
same,"Change from Baseline in PANSS Positive Subscale Score, Median","[1]; Bifeprunox 20 mg, Week 2, LOCF",−3
same,"Change from Baseline in PANSS Positive Subscale Score, Mean (S.D.)","[1]; Bifeprunox 20 mg, Week 3, LOCF",−3.3 (4.4)
same,"Change from Baseline in PANSS Positive Subscale Score, Median","[1]; Bifeprunox 20 mg, Week 3, LOCF",−3
same,"Change from Baseline in PANSS Positive Subscale Score, Mean (S.D.)","[1]; Bifeprunox 20 mg, Week 4, LOCF",−3.5 (4.8)
same,"Change from Baseline in PANSS Positive Subscale Score, Median","[1]; Bifeprunox 20 mg, Week 4, LOCF",−3
same,"CGI Improvement Score, Trt Effect","[2]; 5 mg versus placebo, Endpoint LOCF",−0.28
same,"Actual Value of CGI Improvement Score, Mean (S.D.)","[2]; 5 mg, Endpoint LOCF",3.33 (1.37)
same,"Actual Value of CGI Improvement Score, Median","[2]; 5 mg, Endpoint LOCF",3.0
same,"Actual Value of CGI Improvement Score, Mean (S.D.)","[2]; 5 mg, Week 1, LOCF",3.76 (0.85)
same,"Actual Value of CGI Improvement Score, Median","[2]; 5 mg, Week 1, LOCF",4.0
same,"Actual Value of CGI Improvement Score, Mean (S.D.)","[2]; 5 mg, Week 2, LOCF",3.46 (1.10)
same,"Actual Value of CGI Improvement Score, Median","[2]; 5 mg, Week 2, LOCF",3.0
same,"Actual Value of CGI Improvement Score, Mean (S.D.)","[2]; 5 mg, Week 3, LOCF",3.2 (1.27)
same,"Actual Value of CGI Improvement Score, Median","[2]; 5 mg, Week 3, LOCF",3.0
same,"Actual Value of CGI Improvement Score, Mean (S.D.)","[2]; 5 mg, Week 4, LOCF",3.37 (1.35)
same,"Actual Value of CGI Improvement Score, Median","[2]; 5 mg, Week 4, LOCF",3.0
same,"CGI Improvement Score, Trt Effect","[2]; 10 mg versus placebo, Endpoint LOCF",0.28
same,"Actual Value of CGI Improvement Score, Mean (S.D.)","[2]; 10 mg, Endpoint LOCF",3.90 (1.39)
same,"Actual Value of CGI Improvement Score, Median","[2]; 10 mg, Endpoint LOCF",4.0
same,"Actual Value of CGI Improvement Score, Mean (S.D.)","[2]; 10 mg, Week 1, LOCF",3.88 (1.00)
same,"Actual Value of CGI Improvement Score, Median","[2]; 10 mg, Week 1, LOCF",4.0
same,"Actual Value of CGI Improvement Score, Mean (S.D.)","[2]; 10 mg, Week 2, LOCF",3.71 (1.23)
same,"Actual Value of CGI Improvement Score, Median","[2]; 10 mg, Week 2, LOCF",4.0
same,"Actual Value of CGI Improvement Score, Mean (S.D.)","[2]; 10 mg, Week 3, LOCF",3.79 (1.32)
same,"Actual Value of CGI Improvement Score, Median","[2]; 10 mg, Week 3, LOCF",4.0
same,"Actual Value of CGI Improvement Score, Mean (S.D.)","[2]; 10 mg, Week 4, LOCF",3.86 (1.35)
same,"Actual Value of CGI Improvement Score, Median","[2]; 10 mg, Week 4, LOCF",4.0
same,"CGI Improvement Score, Trt Effect","[2]; 20 mg versus placebo, Endpoint LOCF",−0.21
same,"Actual Value of CGI Improvement Score, Mean (S.D.)","[2]; 20 mg, Endpoint LOCF",342 (1.30)
same,"Actual Value of CGI Improvement Score, Median","[2]; 20 mg, Endpoint LOCF",3.0
same,"Actual Value of CGI Improvement Score, Mean (S.D.)","[2]; 20 mg, Week 1, LOCF",3.54 (0.99)
same,"Actual Value of CGI Improvement Score, Median","[2]; 20 mg, Week 1, LOCF",4.0
same,"Actual Value of CGI Improvement Score, Mean (S.D.)","[2]; 20 mg, Week 2, LOCF",3.30 (114)
same,"Actual Value of CGI Improvement Score, Median","[2]; 20 mg, Week 2, LOCF",3.0
same,"Actual Value of CGI Improvement Score, Mean (S.D.)","[2]; 20 mg, Week 3, LOCF",3.31 (1.19)
same,"Actual Value of CGI Improvement Score, Median","[2]; 20 mg, Week 3, LOCF",3.0
